Test results: US8901116B2, “Method for treating pain, anxiety or depression using carbamoyloxy alkanoyl piperazine compound” (SK Biopharmaceuticals Co., Ltd., priority 2007, dated 2014)

How the values were obtained:
Format in all cases: in vivo
male ICR mouse [1] = test: Acetic acid-induced writhing test in mouse; settings: po, p.o, acetic acid i.p. 1 hour after dosing, writhing counted for 10 minutes, read-out: Writhing Test Suppression of pain response
Protocol: An acetic acid-induced writhing test is one of models for measuring an analgesic effect of drugs. A test material dissolved in a suitable vehicle was orally administered to a male ICR mouse weighing 30 to 35 g at an amount of 10 mg/kg. After 1 hour of the oral administration, […] of an aqueous 0.8% acetic acid solution was intraperitoneally injected into the male ICR mouse to induce the abdominal pain of the male ICR mouse. Right after the administration of acetic acid, the male ICR mouse was put into an empty cage, and the number of writhing behaviors of the mice was counted for 10 minutes. The term “writhing” represents a reflex action in which the mouse overtly extends its abdomen by stretching its hind legs due to the abdominal pain. The analgesic effect of the test material is represented by the ‘suppression of pain response’ {[(Writhing number of vehicle-administered group−Writhing number of Test material—administered group)/(Writhing number of Solvent-administered group)]×100%}.

male ICR mouse [2] = test: Elevated plus maze (EPM) test in mouse; settings: po, p.o, 1 hour after dosing, 5 minutes observation, read-out: Elevated Plus Maze Change index in Open-Arm Time
Description: Elevated plus maze (EPM) is one of representative models that examine an anti-anxiety activity of a test material. Equipment used for an EPM test has a crossroad shape raised in a high position off the ground, and is configured in such a cliff shape that both sides of one road are protected with high walls and the other road is free from the wall. Among them, the road in the cliff shape is referred to as an ‘open arm,’ and the road protected by the walls is referred to as a ‘close arm.’ In this case, a level of the anxiety of a mouse may be measured by determining in which arm the mouse stays longer. In general, the mouse stays longer in the close arm than the open arm, but a mouse treated with a medicine showing an anti-anxiety effect stays relatively longer in the open arm. A test material dissolved in a suitable vehicle was orally administered to a male ICR mouse weighing 20 to 25 g at an amount of 10 mg/kg. After 1 hour of the oral administration, the mouse was put on the center of an EPM equipment to measure how long the mouse stays in the open arm within a time range of 5 minutes. The anti-anxiety effect of the test material is represented by the ‘Change index in Open-Arm Time’ {[(open arm duration in test material-administered group−open arm duration in vehicle-administered group)/(open arm duration in vehicle administered group)]×100%}.

male ICR mouse [3] = test: Head twitch potentiation induced by 5-HTP (5-HTP potentiation test) in mouse; settings: po, 0.5 h, p.o, 5-HTP 80 mg/kg + Carbidopa 25 mg/kg i.p. 30 minutes after dosing, head twitches counted for 2 minutes, negative = 5-HT2A antagonist, read-out: 5-HTP Potentiation Increase rate in Head Twitch No.
Protocol: When 5-hydroxy-L-tryptophan (5-HTP) is administered into a mouse, a head twitch phenomenon is observed since serotonin is increasingly secreted in the mouse. […] By using this principle, it is possible to search an effect of the representative antidepressant agent. A test material dissolved in a suitable vehicle was orally administered to a male ICR mouse weighing 20 to 25 g at an amount of 30 mg/kg. After 30 minutes of the oral administration, 5-HTP (80 mg/kg) and 5-HTP peripheral decarbozylase inhibitor ‘Carbidopa’ (25 mg/kg) were intraperitoneally administered to the mouse. After 30 minutes of the intraperitoneal administration, the mouse was put into an observation cage, and head twitches of the mouse were counted for 2 minutes. The anti-depression effect of the test material is represented by the ‘Increase rate in Head Twitch No.’ {[(Head Twitch No. of Test material-administered group−Head Twitch No. of vehicle-administered group)/(Head Twitch No. of vehicle-administered group)]×100%}. […] In addition to the selective serotonin reuptake inhibitor (SSRI) that has been widely used as an antidepressant agent in the clinical fields, it was tested that 5-HT2A antagonists such as nefazodone and trazodone also have an antidepressant effect.

male ICR mouse [4] = test: Hot plate test in mouse; settings: po, p.o, 1 hour after dosing, hot plate 55° C., read-out: Hot Plate Test Increase in latency of avoidance response
Protocol: A hot plate test is one of representative models for measuring an analgesic effect of drugs. A test material dissolved in a suitable vehicle was orally administered to a male ICR mouse weighing 25 to 30 g at an amount of 30 mg/kg. After 1 hour of the oral administration, the mouse was put on a hot plate (55° C.). A latency was recorded from the time right after a mouse is put on a hot plate to the time when avoidance responses (flinching, licking, jumping, etc.) to pain are observed from forefeet or rear legs of the mouse. The analgesic effect of the test material is represented by the ‘Increase in latency of avoidance response’ {[(Latency of avoidance response to pain of Test material-administered group−Latency of avoidance response to pain of vehicle-administered group)/(Latency of avoidance response to pain of Solvent-administered group)]×100%}.

| Compound | inhibition in vivo at 10 mg/kg (male ICR mouse [1]) | change in vivo at 10 mg/kg (male ICR mouse [2]) | change in vivo at 30 mg/kg (male ICR mouse [3]) | change in vivo at 30 mg/kg (male ICR mouse [4]) |
| --- | --- | --- | --- | --- |
| NC(=O)O[C@@H](CC(=O)N1CCN(c2ccc(F)c(F)c2)CC1)c1ccccc1 [Example 64, (S)-carbamic acid 3-[4-(3,4-difluoro-phenyl)-piperazin-1-yl]-3-oxo-1-phenyl-propyl ester] | 41.1% | 125% | 134% | 33% |
| NC(=O)OC(CC(=O)N1CCN(c2ccccc2)CC1)c1ccc([N+](=O)[O-])cc1 (stereo not shown) [Example 34, carbamic acid 1-(4-nitro-phenyl)-3-oxo-3-(4-phenyl-piperazin-1-yl)-propyl ester] | 38.4% | 6.5% | 2.9% | 0.6% |
| NC(=O)OC(CC(=O)N1CCN(c2ccc(C(F)(F)F)cc2)CC1)c1ccccc1 (stereo not shown) [Example 28, carbamic acid 3-oxo-1-phenyl-3-[4-(4-trifluoromethyl-phenyl)-piperazin-1-yl]-propyl ester] | 55.6% | -1.4% | -12.5% | 3.1% |
| NC(=O)OC(CC(=O)N1CCN(c2ccccc2)CC1)c1ccc(Cl)cc1Cl (stereo not shown) [Example 56, carbamic acid 1-(2,4-dichloro-phenyl)-3-oxo-3-(4-phenyl-piperazin-1-yl)-propyl ester] | 23.3% | 23.9% | 40% | 11.8% |
| NC(=O)OC(CC(=O)N1CCN(c2ccccc2)CC1)c1cccc(Cl)c1 (stereo not shown) [Example 51, carbamic acid 1-(3-chloro-phenyl)-3-oxo-3-(4-phenyl-piperazin-1-yl)-propyl ester] | 50.8% | -0.7% | 40.3% | 29.2% |
| NC(=O)O[C@H](CC(=O)N1CCN(c2ccc(Cl)c(Cl)c2)CC1)c1ccccc1 [Example 68, (R)-carbamic acid 3-[4-(3,4-dichloro-phenyl)-piperazin-1-yl]-3-oxo-1-phenyl-propyl ester] | 51% | 1.5% | -28.6% | 15.7% |
| NC(=O)OC(CC(=O)N1CCN(c2cccc(Cl)c2Cl)CC1)c1ccccc1 (stereo not shown) [Example 12, carbamic acid 3-[4-(2,3-dichloro-phenyl)-piperazin-1-yl]-3-oxo-1-phenyl-propyl ester] | 37% | 41.1% | 10% | 46.8% |
| NC(=O)O[C@@H](CC(=O)N1CCN(c2ccc(Cl)cc2)CC1)c1ccccc1 [Example 85, (S)-carbamic acid 3-[4-(4-chloro)-phenylpiperazin-1-yl]-3-oxo-1-phenyl-propyl ester] | 52% | 37% | 222% | 25.3% |
| NC(=O)OC(CC(=O)N1CCN(CCc2ccc(Cl)c(Cl)c2)CC1)c1ccccc1 (stereo not shown) [Example 39, carbamic acid 3-{4-[2-(3,4-dichloro-phenyl)-ethyl]-piperazin-1-yl}-3-oxo-1-phenyl-propyl ester] | 23.2% | 57.8% | 319% | 18.7% |
| COc1cc(OC)cc(N2CCN(C(=O)CC(OC(N)=O)c3ccccc3)CC2)c1 (stereo not shown) [Example 11, carbamic acid 3-[4-(3,5-dimethoxy-phenyl)-piperazin-1-yl]-3-oxo-1-phenyl-propyl ester] | 5.5% | 19.8% | 31.3% | 46.1% |
| NC(=O)OC(CC(=O)N1CCN(c2ccccc2)CC1)c1ccccc1Cl (stereo not shown) [Example 43, carbamic acid 1-(2-chloro-phenyl)-3-oxo-3-(4-phenyl-piperazin-1-yl)-propyl ester] | 46% | 19.7% | 211% | 26.7% |
| Cc1ccc(N2CCN(C(=O)C[C@H](OC(N)=O)c3ccccc3)CC2)cc1 [Example 81, (S)-carbamic acid 3-[4-(4-methyl)-phenylpiperazin-1-yl]-3-oxo-1-phenyl-propyl ester] | 20.1% | 23% | -21.4% | 9.2% |
| NC(=O)OC(CC(=O)N1CCN(c2ccccc2)CC1)c1ccc(C(F)(F)F)cc1 (stereo not shown) [Example 31, carbamic acid 3-oxo-3-(4-phenyl-piperazin-1-yl)-1-(4-trifluoromethyl-phenyl)-propyl ester] | 21.6% | 35.6% | 10% | 20.1% |
| NC(=O)OC(CC(=O)N1CCN(c2ccc(Cl)c(Cl)c2)CC1)c1ccccc1 (stereo not shown) [Example 3, carbamic acid 3-[4-(3,4-dichloro-phenyl)-piperazin-1-yl]-3-oxo-1-phenyl-propyl ester] | 65% | 9.7% | 54.5% | 38.5% |
| NC(=O)OC(CC(=O)N1CCN(c2ccccc2)CC1)c1cccc(C(F)(F)F)c1 (stereo not shown) [Example 45, carbamic acid 1-(3-trifluormethyl-phenyl)-3-oxo-3-(4-phenyl-piperazin-1-yl)-propyl ester] | 19% | 74.5% | 167% | 6.9% |
| NC(=O)OC(CC(=O)N1CCN(c2ccccc2)CC1)c1cccc(Br)c1 (stereo not shown) [Example 46, carbamic acid 1-(3-bromo-phenyl)-3-oxo-3-(4-phenyl-piperazin-1-yl)-propyl ester] | 71.3% | 5.7% | 40.3% | 33.1% |
| NC(=O)O[C@H](CC(=O)N1CCN(c2ccc(F)cc2F)CC1)c1ccccc1 [Example 82, (R)-carbamic acid 3-[4-(2,4-difluoro)-phenylpiperazin-1-yl]-3-oxo-1-phenyl-propyl ester] | 34.5% | 62.6% | -20% | 65.7% |
| NC(=O)OC(CC(=O)N1CCN(Cc2ccc(Cl)c(Cl)c2)CC1)c1ccccc1 (stereo not shown) [Example 37, carbamic acid 3-[4-(3,4-dichloro-benzyl)-piperazin-1-yl]-3-oxo-1-phenyl-propyl ester] | 38.1% | 98.8% | 167% | 10% |
| NC(=O)OC(c1ccccc1)C(F)(F)C(=O)N1CCN(c2ccccc2)CC1 (stereo not shown) [Example 47, carbamic acid 2,2-difluoro-3-oxo-1-phenyl-3-(4-phenyl-piperazin-1-yl)-propyl ester] | 28.8% | 21.4% | 22.5% | 27.2% |
